Results published in ChEMBL document CHEMBL4052735, “One-pot two-step facile synthesis of 2,3,4,5-tetra substituted dihydrooxazoles and their antimicrobial activity” (2017).
Values after ≈ are worked out from the molar mass of the structure shown. Active and inactive are the calls of the source. The calls are words filed in the database; no cut-off is given here.

Legend:
Type in all cases: functional
Klebsiella pneumoniae [1] = assay: Antibacterial activity against Klebsiella pneumoniae after 24 hrs by visual and spectrophotometric analysis
Staphylococcus aureus [2] = assay: Antibacterial activity against Staphylococcus aureus after 24 hrs by visual and spectrophotometric analysis
Escherichia coli [3] = assay: Bactericidal activity against Escherichia coli after 24 hrs by visual and spectrophotometric analysis
Bacillus subtilis [4] = assay: Bactericidal activity against Bacillus subtilis after 24 hrs by visual and spectrophotometric analysis
Staphylococcus aureus [5] = assay: Bactericidal activity against Staphylococcus aureus after 24 hrs by visual and spectrophotometric analysis
Klebsiella pneumoniae [6] = assay: Bactericidal activity against Klebsiella pneumoniae after 24 hrs by visual and spectrophotometric analysis
Bacillus subtilis [7] = assay: Antibacterial activity against Bacillus subtilis after 24 hrs by visual and spectrophotometric analysis
Klebsiella pneumoniae [8] = assay: Ratio of MBC to MIC against Klebsiella pneumoniae
Escherichia coli [9] = assay: Antibacterial activity against Escherichia coli after 24 hrs by visual and spectrophotometric analysis
Phytophthora infestans = assay: Antifungal activity against Phytophthora infestans after 48 to 72 hrs by disk diffusion method
Bacillus subtilis [10] = assay: Ratio of MBC to MIC against Bacillus subtilis
Staphylococcus aureus [11] = assay: Ratio of MBC to MIC against Staphylococcus aureus
Escherichia coli [12] = assay: Ratio of MBC to MIC against Escherichia coli

Work on `O=C(O)c1cn(C2CC2)c2cc(N3CCNCC3)c(F)cc2c1=O` [CIPROFLOXACIN] yielded an MIC (Klebsiella pneumoniae [1]) of 6.25 µg/mL (≈ 18.9 µM), an MIC (Staphylococcus aureus [2]) of 6.5 µg/mL (≈ 19.6 µM) and an MBC (Escherichia coli [3]) of 25 µg/mL (≈ 75.4 µM). The MBC (Bacillus subtilis [4]) was 25 µg/mL (≈ 75.4 µM), the MBC (Staphylococcus aureus [5]) was 12.5 µg/mL (≈ 37.7 µM) and the MBC (Klebsiella pneumoniae [6]) was 10.2 µg/mL (≈ 30.9 µM). The MIC (Bacillus subtilis [7]) was 10 µg/mL (≈ 30.2 µM).
With `COc1ccccc1NC(=S)NN1C(c2ccccc2)=C(c2ccccc2)OC1c1ccc(O)cc1` (configuration not stated) the MIC (Klebsiella pneumoniae [1]) was 25 µg/mL (≈ 50.4 µM), the Ratio (Klebsiella pneumoniae [8]) was 2 and the MIC (Staphylococcus aureus [2]) was “inactive”. For the same compound, the MBC (Escherichia coli [3]) was “inactive”, the MIC (Escherichia coli [9]) was “inactive” and the MBC (Bacillus subtilis [4]) was “inactive”. For the same compound, the MBC (Staphylococcus aureus [5]) was “inactive”, the MBC (Klebsiella pneumoniae [6]) was 50 µg/mL (≈ 101 µM) and the MIC (Bacillus subtilis [7]) was “inactive”.
`Cc1ccccc1NC(=S)NN1C(c2ccccc2)=C(c2ccccc2)OC1c1ccc(O)cc1` (configuration not stated) was tested, and the MIC (Klebsiella pneumoniae [1]) was 50 µg/mL (≈ 104 µM), the Ratio (Klebsiella pneumoniae [8]) was 2 and the MIC (Staphylococcus aureus [2]) was “inactive”. For the same compound, the MBC (Escherichia coli [3]) was “inactive”, the MIC (Escherichia coli [9]) was “inactive” and the MBC (Bacillus subtilis [4]) was “inactive”. For the same compound, the MBC (Staphylococcus aureus [5]) was “inactive”, the MBC (Klebsiella pneumoniae [6]) was 100 µg/mL (≈ 209 µM) and the MIC (Bacillus subtilis [7]) was “inactive”.
`Oc1ccc(C2OC(c3ccccc3)=C(c3ccccc3)N2NC(=S)Nc2ccccc2)cc1` (configuration not stated) gave an MIC (Phytophthora infestans) of 10 µg/mL (≈ 21.5 µM).
In the case of `Oc1ccc(C2OC(c3ccccc3)=C(c3ccccc3)N2NC(=S)Nc2ccccc2Cl)cc1` (configuration not stated), the MIC (Klebsiella pneumoniae [1]) is reported as “inactive”, the MIC (Staphylococcus aureus [2]) is reported as 30 µg/mL (≈ 60 µM) and the MBC (Escherichia coli [3]) is reported as “inactive”. For the same compound, the MIC (Escherichia coli [9]) was “inactive”, the MBC (Bacillus subtilis [4]) was 100 µg/mL (≈ 200 µM) and the MBC (Staphylococcus aureus [5]) was 50 µg/mL (≈ 100 µM). The MBC (Klebsiella pneumoniae [6]) was “inactive”, the Ratio (Bacillus subtilis [10]) was 2.5 and the Ratio (Staphylococcus aureus [11]) was 1.6. It also gave an MIC (Bacillus subtilis [7]) of 40 µg/mL (≈ 80 µM).
`COc1ccc(C2OC(c3ccccc3)=C(c3ccccc3)N2NC(=S)Nc2ccc(Cl)cc2)cc1` (configuration not stated) gave an MIC (Phytophthora infestans) of 16 µg/mL (≈ 31.1 µM).
`Oc1ccc(C2OC(c3ccccc3)=C(c3ccccc3)N2NC(=S)Nc2ccc(Cl)cc2)cc1` (configuration not stated) showed an MIC (Phytophthora infestans) of 16 µg/mL (≈ 32 µM).
`COc1ccc(C2OC(c3ccccc3)=C(c3ccccc3)N2NC(=S)Nc2ccccc2OC)cc1` (configuration not stated) was tested, and the MIC (Klebsiella pneumoniae [1]) was “inactive”, the MIC (Staphylococcus aureus [2]) was 40 µg/mL (≈ 78.5 µM) and the MBC (Escherichia coli [3]) was “inactive”. The MIC (Escherichia coli [9]) was “inactive”, the MBC (Bacillus subtilis [4]) was 50 µg/mL (≈ 98.1 µM) and the MBC (Staphylococcus aureus [5]) was 100 µg/mL (≈ 196 µM). The MBC (Klebsiella pneumoniae [6]) was “inactive”, the Ratio (Bacillus subtilis [10]) was 1.6 and the Ratio (Staphylococcus aureus [11]) was 2.5. It also gave an MIC (Bacillus subtilis [7]) of 30 µg/mL (≈ 58.9 µM).
`COc1ccc(C2OC(c3ccccc3)=C(c3ccccc3)N2NC(=S)Nc2ccccc2Cl)cc1` (configuration not stated) was tested, and the MIC (Klebsiella pneumoniae [1]) was “inactive”, the MIC (Staphylococcus aureus [2]) was “inactive” and the MBC (Escherichia coli [3]) was 50 µg/mL (≈ 97.3 µM). The MIC (Escherichia coli [9]) was 25 µg/mL (≈ 48.6 µM), the MBC (Bacillus subtilis [4]) was “inactive” and the Ratio (Escherichia coli [12]) was 2. The MBC (Staphylococcus aureus [5]) was “inactive”, the MBC (Klebsiella pneumoniae [6]) was “inactive” and the MIC (Bacillus subtilis [7]) was “inactive”.
Work on `COc1ccc(C2OC(c3ccccc3)=C(c3ccccc3)N2NC(=S)Nc2ccccc2C)cc1` (configuration not stated) yielded an MIC (Klebsiella pneumoniae [1]) of 25 µg/mL (≈ 50.6 µM), a Ratio (Klebsiella pneumoniae [8]) of 2 and an MIC (Staphylococcus aureus [2]) of 30 µg/mL (≈ 60.8 µM). The MBC (Escherichia coli [3]) was “inactive”, the MIC (Escherichia coli [9]) was “inactive” and the MBC (Bacillus subtilis [4]) was 50 µg/mL (≈ 101 µM). It also gave an MBC (Staphylococcus aureus [5]) of 100 µg/mL (≈ 203 µM), an MBC (Klebsiella pneumoniae [6]) of 50 µg/mL (≈ 101 µM) and a Ratio (Bacillus subtilis [10]) of 2.5. For the same compound, the Ratio (Staphylococcus aureus [11]) was 3.3 and the MIC (Bacillus subtilis [7]) was 20 µg/mL (≈ 40.5 µM).
`COC1=CC(=O)C[C@@H](C)[C@]12Oc1c(Cl)c(OC)cc(OC)c1C2=O` [GRISEOFULVIN] gave an MIC (Phytophthora infestans) of 20 µg/mL (≈ 56.7 µM).
Compound `Cc1ccc(NC(=S)NN2C(c3ccccc3)=C(c3ccccc3)OC2c2ccc(O)cc2)cc1` (configuration not stated) has an MIC (Phytophthora infestans) of 14 µg/mL (≈ 29.2 µM).
`COc1ccc(NC(=S)NN2C(c3ccccc3)=C(c3ccccc3)OC2c2ccc(O)cc2)cc1` (configuration not stated) showed an MIC (Phytophthora infestans) of 16 µg/mL (≈ 32.3 µM).
With `COc1ccc(C2OC(c3ccccc3)=C(c3ccccc3)N2NC(=S)Nc2ccc(C)cc2)cc1` (configuration not stated) the MIC (Phytophthora infestans) was 14 µg/mL (≈ 28.4 µM).
